From publication PMC11770318, “Isolation and characterization of a β-galactosidase from Lactobacillus helveticus for industrial processing” (JDS Communications, 2024)

How the values were obtained:
[1] = biological target: T1, β-galactosidase (LacLM) from Lactobacillus helveticus OSU-PECh-4A (Lactobacillus helveticus, UniProt Q7WTB3+Q7WTB4); assay: inhibition of lactose hydrolysis; assay type: biochemical; settings: end product; substrate lactose; 50 mM sodium phosphate pH 7.0, 37°C
T1 construct: gene lacL; native, purified from Lb. helveticus OSU-PECh-4A by diafiltration and size-exclusion chromatography; GH2 heterodimer, 110 kDa (74 + 36 kDa subunits); 13 peptides identified by LC-MS; no tag

[2] = biological target: T1, β-galactosidase (LacLM) from Lactobacillus helveticus OSU-PECh-4A; assay: inhibition of oNPG hydrolysis; assay type: biochemical; settings: end product; substrate oNPG; 50 mM sodium phosphate pH 7.0, 37°C; allosteric (authors' interpretation)

T1 sequence (Q7WTB4 whole entry): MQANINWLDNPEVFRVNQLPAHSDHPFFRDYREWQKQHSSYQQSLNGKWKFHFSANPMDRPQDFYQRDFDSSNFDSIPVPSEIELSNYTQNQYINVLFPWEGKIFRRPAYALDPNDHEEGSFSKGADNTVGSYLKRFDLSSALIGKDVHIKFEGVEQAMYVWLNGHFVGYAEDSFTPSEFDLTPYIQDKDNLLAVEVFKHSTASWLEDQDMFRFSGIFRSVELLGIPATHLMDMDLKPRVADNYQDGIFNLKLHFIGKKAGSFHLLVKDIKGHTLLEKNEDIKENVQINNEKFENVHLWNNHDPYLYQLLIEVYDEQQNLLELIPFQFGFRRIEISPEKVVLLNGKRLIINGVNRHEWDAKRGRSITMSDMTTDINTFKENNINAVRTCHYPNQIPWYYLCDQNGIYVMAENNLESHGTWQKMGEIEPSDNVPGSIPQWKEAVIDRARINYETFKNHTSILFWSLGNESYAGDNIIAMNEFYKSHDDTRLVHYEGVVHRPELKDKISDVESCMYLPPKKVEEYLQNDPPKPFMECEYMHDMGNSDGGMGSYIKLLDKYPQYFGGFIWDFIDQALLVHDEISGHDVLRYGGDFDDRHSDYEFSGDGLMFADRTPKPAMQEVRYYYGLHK
T1 sequence (Q7WTB3 whole entry): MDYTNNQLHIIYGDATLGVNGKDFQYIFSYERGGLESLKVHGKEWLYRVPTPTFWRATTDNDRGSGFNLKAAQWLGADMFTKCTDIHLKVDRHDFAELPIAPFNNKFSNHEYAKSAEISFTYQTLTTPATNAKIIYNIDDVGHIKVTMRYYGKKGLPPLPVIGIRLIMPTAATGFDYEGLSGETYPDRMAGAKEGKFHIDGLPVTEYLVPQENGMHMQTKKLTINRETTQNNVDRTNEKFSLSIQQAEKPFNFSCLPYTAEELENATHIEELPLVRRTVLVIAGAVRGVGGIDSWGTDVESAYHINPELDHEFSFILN

| % loss of initial activity at 1 mM [1] [%] | % decrease of activity below 50 mM [2] [%] | Compound |
| --- | --- | --- |
| 30 | – | OC[C@H]1OC(O)[C@H](O)[C@@H](O)[C@H]1O (stereo partly drawn) [D-galactose] |
| – | 30 | OC[C@H]1OC(O)[C@H](O)[C@@H](O)[C@@H]1O (stereo partly drawn) [D-glucose] |
